Measurements: patent US20110152341A1, “CLEAVAGE OF B-AMYLOID PRECURSOR PROTEIN” (PROBIODRUG AG, priority 2009, published 2011)

Tested on: human meprin-β (hMPβ) and human APP in HEK293 cells
Test: Aβ secreted by HEK293 cells after transient overexpression of human meprin-β and human APP, ELISA
Format: cell-based
Details: 20 μM actinonin (1% DMSO), 24 h, HEK293, ELISA (IBL) with antibody 6E10
Experimental: The sequence of human APP was cloned into the vector pcDNA3.1 (Invitrogen) and various mutations were inserted. The resulting clones were named pcDNA-hAPP (for wildtyp APP), pcDNA-hAPPsw (for mutation K595N, M596L) and pcDNA-hAPP/E3Q (for mutation E599Q). For transient overexpression of human meprin and human APP the cells were cultured in 6-well dishes until 90% confluence, transfected with 2 μg of vector with meprin and 2 μg of one of the described APP-vectors per well using Lipofectamin2000 (Invitrogen) according to manufacturer's manual. Control samples were transfected with pcDNA3.1. After 24 h the solution was replaced by medium free of serum and phenolred. Medium was collected 24 h later and supplemented with a protease inhibitor cocktail (complete, Mini, Roche), centrifuged at 500×g and 10 000×g, subsequently to remove cells and debris. The supernatant was stored at −80 until analysis by ELISA (IBL) and urea western-blot for identification of liberated Aβ species.
24 h after co-transfection of HEK293 cells with human APP and meprin (as described for example 4) the medium was replaced by medium free of serum and phenolred supplemented with 20 μM Actinonin (1% DMSO). 24 hours later medium was collected, supplemented with inhibitor cocktail (complete, Mini, Roche), centrifuged at 500×g and 10 000×g, subsequently to remove cells and debris. […]

Compound: CCCCC[C@H](CC(=O)NO)C(=O)N[C@H](C(=O)N1CCC[C@H]1CO)C(C)C [Actinonin]
- Effect on the increase of Aβ secretion after overexpression of hAPP and hMPβ: reduced to almost the basal level
